In ChEMBL document CHEMBL1128780, “Inactivation of carboxypeptidase a by 2-benzyl-3,4-epithiobutanoic acid” (Bioorg Med Chem Lett, 1995):

Experiments:
[1] = (§1) Inhibitory activity against Carboxypeptidase A (CPA)
[2] = as §1; remark: listed apart in the source

| SMILES | Ki [1] [µM] | K inact [2] [min⁻¹] |
| --- | --- | --- |
| O=C(O)[C@H](Cc1ccccc1)[C@H]1CO1 (single isomer, unassigned) | 86 | 1.59 |
| O=C(O)[C@H](Cc1ccccc1)[C@H]1CS1 | 94 | 1.31 |
| O=C(O)[C@@H](Cc1ccccc1)[C@H]1CO1 | 155 | 1.11 |
